Results from patent publication EP1733731A1, “New uses of Glycerol derivatives in particular in cosmetics” (AGRO INDUSTRIE RECHERCHES ET DEVELOPPEMENTS (A.R.D.), priority 2005, dated 2006).

Columns and labels:
MMP-2 = molecular target: T1, MMP-2 (Homo sapiens, UniProt P08253); test: MMP-2 activity on fluorescent synthetic substrate; format: biochemical; conditions: 25 µg/mL
T1 construct: La proMMP-2 recombinante (12,5 ng/mL) est activée par l'APMA 10 mM pendant 16 heures à 4°C
T1 sequence (P08253 110-660): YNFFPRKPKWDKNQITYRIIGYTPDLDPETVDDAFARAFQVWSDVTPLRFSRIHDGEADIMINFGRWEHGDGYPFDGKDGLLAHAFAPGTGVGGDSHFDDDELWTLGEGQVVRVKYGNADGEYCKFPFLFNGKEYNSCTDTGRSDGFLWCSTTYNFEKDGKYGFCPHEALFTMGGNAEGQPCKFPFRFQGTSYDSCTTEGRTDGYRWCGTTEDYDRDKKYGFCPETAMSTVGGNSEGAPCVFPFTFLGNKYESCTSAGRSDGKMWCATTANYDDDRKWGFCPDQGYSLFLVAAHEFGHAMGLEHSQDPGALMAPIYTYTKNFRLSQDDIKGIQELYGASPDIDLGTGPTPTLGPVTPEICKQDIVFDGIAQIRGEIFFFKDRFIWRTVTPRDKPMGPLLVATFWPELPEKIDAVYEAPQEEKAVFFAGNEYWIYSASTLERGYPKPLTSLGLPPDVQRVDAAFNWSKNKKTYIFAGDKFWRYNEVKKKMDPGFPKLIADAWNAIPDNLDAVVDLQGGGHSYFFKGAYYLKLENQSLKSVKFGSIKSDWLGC
Source text: L'inhibition de l'activité des gélatinases MMP-2 et MMP-9 par les acides gras insaturés à longue chaîne a pu être montré sur des coupes de peau. Ce phénomène implique à la fois des domaines spécifiques des gélatinases : les "Collagen Binding Domain" (CBD) et la double liaison des acides gras. L'interaction entre les gélatinases, via ces sites particuliers que sont les exosites (CBD), et l'acide gras, via son insaturation, entraîne une perte d'activité des gélatinases in vitro comme in vivo. La présence de double liaisons au niveau des chaînes latérales de ces glycolipides a conduit à cribler l'ensemble des composés de l'invention sur l'activité de la gélatinase-A ou MMP-2, car cette enzyme, bien qu'elle ne soit pas surexprimée au cours des vieillissements par les cellules dermiques, participe à la dégradation du tissu élastique responsable de la formation de rides. […]
La proMMP-2 recombinante (12,5 ng/mL) est activée par l'APMA 10 mM pendant 16 heures à 4°C puis préincubée 10 min en présence des différentes fractions et composés à tester : le substrat synthétique spécifique de la MMP-2 (Référence : M-1895, Bachem) est ensuite ajouté, à la concentration de 2 µM. Le clivage de ce substrat est estimé par mesure de la fluorescence émise après clivage (λexc = 326 nm; λem = 465 nm), à raison d'une lecture toutes les 2 minutes pendant 30 minutes. […]

TIMP-1 = TIMP-1 secretion by dermal fibroblasts (reverse zymography); format: cell-based
Source text: Les effets de ces composés et fractions ont été étudiés sur la sécrétion de TIMP-1 par des fibroblastes dermiques en culture. L'analyse de la quantité de TIMP-1 produite est effectuée par une technique de zymographie inverse (Biotechniques. 2005 Jan;38(1):73-83. Zymographic techniques for the analysis of matrix metalloproteinases and their inhibitors. Snoek-van Beurden PA, Von den Hoff JW). Les résultats présentés sont exprimés en pourcentage par rapport au témoin sans effecteur.

With CCCCC/C=C\C/C=C\CCCCCCCCOC[C@H](CO[C@@H]1O[C@H](COC(=O)CCCCCCCCCCCCCCC)[C@H](O)[C@H](O)[C@H]1O)OCCCCCCCC/C=C\C/C=C\CCCCC [ED23-11, 1,2-di-O-linoléyl-3-O-[6'-O-palmitoyl-β-D-galactopyranosyl]-sn-glycérol] the “MMP-2 (Vi/Vo)” value (MMP-2) was greater than 1, the “sécrétion de TIMP-1, pourcentage par rapport au témoin sans effecteur” value (TIMP-1; 5 ng/mL) was 102% and the “sécrétion de TIMP-1, pourcentage par rapport au témoin sans effecteur” value (TIMP-1; 25 ng/mL) was 104%. The “sécrétion de TIMP-1, pourcentage par rapport au témoin sans effecteur” value (TIMP-1; 50 ng/mL) was 98%, the “sécrétion de TIMP-1, pourcentage par rapport au témoin sans effecteur” value (TIMP-1; 100 ng/mL) was 101% and the “sécrétion de TIMP-1, pourcentage par rapport au témoin sans effecteur” value (TIMP-1; 200 ng/mL) was 106%. The “surexpression du TIMP-1” value (TIMP-1; over the tested concentration range, result in words) was “pas”.
